# Data as given in patent US12486218B2, “Compounds advantageous in the treatment of central nervous system diseases and disorders” (AurimMed Pharma, Inc., priority 2008, dated 2025).
# Like-named read-outs stand apart in the source and are kept apart here.
# Tests used:
# [1] = test system: SMN2 promoter; assay: SMN2 promoter β-lactamase reporter assay in NSC34 motor neuron-like cells; assay type: cell-based; details: for Promoter (SMN2 promoter test, summary YES/NO): Table 13 summary; for SMN2 promoter activity: treatment for 19 hours at a concentration of 1 μM
# Procedure: FIG. 30 illustrates a screen for SMN2 expression of a number of compounds described herein.
# SMN2 promoter activity was measured using NSC34 motor neuron-like cells stably transfected with a β-lactamase (BLA) reporter gene under the control of a 3.4-kilobase fragment of the SMN2 promoter. D156844 was used as a positive control for this assay.
# [2] = test system: mice; assay: Maximal Electroshock Seizure (MES) test, mice i.p.; assay type: in vivo; details: for activity in the MES test: mice, at 300 mg/kg; for MES, fraction of animals: mice i.p.
# [3] = test system: mice; assay: Subcutaneous Metrazol Seizure threshold (s.c. MET) test, mice i.p.; assay type: in vivo; details: mice; at 300 mg/kg
# [4] = test system: rats; assay: Pilocarpine-induced Status Epilepticus in Rats (prevention; intervention @ 30 min)
# Procedure: The animal testing was performed using the protocols developed in the Anticonvulsant Screening Program (ASP) at the National Institute of Neurological Disorders and Stroke (NINDS), National Institutes of Health (NIH).
# [5] = test system: mice; assay: 6 Hz (minimal clonic seizure) model, mice i.p.; assay type: in vivo; details: for 6 Hz (32 mA), fraction of animals: mice i.p.; for activity in the 6 Hz (minimal clonic seizure) model: mice
# [6] = Rattus norvegicus, 0.5 h, read-out: Intervention @ 30 min, Protection
# [7] = Rattus norvegicus, read-out: Prevention, Protection
smiles,measurement,setting,value
CC(CC(N)=O)c1cnccn1 (racemic) [DC],"Promoter (SMN2 promoter test, summary YES/NO)",[1],YES
same,SMN2 promoter activity,[1],increased SMN2 promoter activity
"NC(=O)CC(c1ccc2c(c1)OCCO2)C1CC1 (centres unmarked) [AP, 3-Cyclopropyl-3-(2,3dihydro-benzo[1,4]dioxin-6-yl)propionamide]",activity in the MES test,[2],activity
same,activity in the s.c. MET test,[3],activity
same,responders at 600 mg/kg,[4]; [6],75%
same,responders at 450 mg/kg,[4]; [7],75%
Cc1nc2ccccc2nc1C(C)CC(N)=O (racemic) [DE],"6 Hz (32 mA), fraction of animals",[5]; 100 mg/kg @ 0.25 hr,1/4 @
same,"6 Hz (32 mA), fraction of animals",[5]; 100 mg/kg @ 0.5 hr,1/4 @
"CC(C)c1ccc(C(C)CC(N)=O)cc1 (centres unmarked) [Compound AW, 3-(4-Isopropylphenyl)butyramide]",activity in the MES test,[2],activity
same,"6 Hz (32 mA), fraction of animals",[5]; 200 mg/kg @ 0.25 hr,"4/4, 4/4 @"
same,"6 Hz (32 mA), fraction of animals",[5]; 200 mg/kg @ 0.5 hr,"4/4, 4/4 @"
same,activity in the 6 Hz (minimal clonic seizure) model,[5]; at 200 mg/kg,activity
same,SMN2 promoter activity,[1],increased SMN2 promoter activity
same,responders at 200 mg/kg,[4]; [6],25%
same,responders at 450 mg/kg,[4]; [7],75%
"CC(CC(=O)N[C@@H](C)C(N)=O)c1ccc(OC(F)(F)F)cc1 (stereo partly drawn) [BS, N-((S)-1-Carbamoyl-ethyl)-3-(4-trifluoromethoxy-phenyl)-butyramide]",activity in the MES test,[2],activity
same,"6 Hz (32 mA), fraction of animals",[5]; 100 mg/kg @ 1.0 hr,1/4 @ 1.0
CCOc1ccc(C(C)CC(N)=O)cc1 (racemic) [CA],activity in the 6 Hz (minimal clonic seizure) model,[5]; at 100 mg/kg,activity
same,"Promoter (SMN2 promoter test, summary YES/NO)",[1],YES
same,SMN2 promoter activity,[1],increased SMN2 promoter activity
same,"Prevention, Protection","[4]; rats, pilocarpine-induced status epilepticus, dose 600 mg/kg",100%
"CC(C)C[C@@H](NC(=O)CC(C)c1ccc(OC(F)(F)F)cc1)C(N)=O (stereo partly drawn) [BP, (R)-4-Methyl-2-[3-(4-trifluoromethoxy-phenyl)-butyrylamino]-pentanoic acid amide]","6 Hz (32 mA), fraction of animals",[5]; 100 mg/kg @ 0.25 hr,1/4 @ 0.25
Cc1cnc(C(C)CC(N)=O)c(C)n1 (racemic) [DD],"6 Hz (32 mA), fraction of animals",[5]; 100 mg/kg @ 0.5 hr,"1/4 @ 0.5 hr,"
same,"Promoter (SMN2 promoter test, summary YES/NO)",[1],YES
same,SMN2 promoter activity,[1],increased SMN2 promoter activity
COc1ccc(C2(CC(N)=O)CCCC2)cc1 [AZ],SMN2 promoter activity,[1],increased SMN2 promoter activity
"CC[C@H](NC(=O)[C@@H]1C[C@H]1c1ccccc1)C(N)=O (mixture of isomers) [Compound Q-1, trans-2-Phenylcyclopropane-carboxylic acid-((S)-1-carbamoyl-propyl)amide]","MES, fraction of animals",[2]; 100 mg/kg @ 0.5 hr,2/3
same,"MES, fraction of animals",[2]; 100 mg/kg @ 4.0 hr,1/3
same,activity in the MES test,[2],activity
same,activity in the s.c. MET test,[3],activity
same,"6 Hz (32 mA), fraction of animals",[5]; 50 mg/kg @ 0.25 hr,1/4 @0.25
same,"6 Hz (32 mA), fraction of animals",[5]; 100 mg/kg @ 0.25 hr,4/4
same,"6 Hz (32 mA), fraction of animals",[5]; 100 mg/kg @ 0.5 hr,3/4
same,"6 Hz (32 mA), fraction of animals",[5]; 100 mg/kg @ 1.0 hr,4/4
same,"6 Hz (32 mA), fraction of animals",[5]; 100 mg/kg @ 2.0 hr,1/4
same,activity in the 6 Hz (minimal clonic seizure) model,[5]; at 100 mg/kg,activity
"NC(=O)C1CC1(c1ccccc1)c1ccccc1 (centres unmarked) [BB, 2,2-Diphenyl-cyclopropanecarboxylicacid amide]",activity in the 6 Hz (minimal clonic seizure) model,[5]; at 100 mg/kg,activity
same,SMN2 promoter activity,[1],increased SMN2 promoter activity
"COc1ccc(C(C)CC(N)=O)cc1Cl (centres unmarked) [J, 3-(3-chloro-4-methoxy-phenyl)butyramide]",activity in the s.c. MET test,[3],activity
same,responders at 600 mg/kg,[4]; [6],38%
same,responders at 600 mg/kg,[4]; [7],75%
"CC(CC(N)=O)c1cccc(F)c1 (centres unmarked) [Compound D, 3-(3-Fluorophenyl)butyramide]",activity in the MES test,[2],activity
same,activity in the s.c. MET test,[3],activity
same,responders at 400 mg/kg,[4]; [6],75%
same,responders at 200 mg/kg,[4]; [7],100%
COc1ccc(C(C)CC(N)=O)cn1 (racemic) [CI],"6 Hz (32 mA), fraction of animals",[5]; 100 mg/kg @ 0.25 hr,1/4 @ 0.25 hr
Cc1ccc(C(C)CC(N)=O)cn1 (racemic) [CH],"6 Hz (32 mA), fraction of animals",[5]; 50 mg/kg @ 0.25 hr,"1/4, 1/4"
same,"6 Hz (32 mA), fraction of animals",[5]; 50 mg/kg @ 0.5 hr,"1/4, 1/4"
"CC(C)C(CC(N)=O)c1ccc(Cl)cc1 (centres unmarked) [AR, 3-(4-Chloro-phenyl)-4-methyl-pentanoic-acid-amide]",activity in the MES test,[2],activity
same,activity in the s.c. MET test,[3],activity
same,"6 Hz (32 mA), fraction of animals",[5]; 100 mg/kg @ 0.25 hr,3/4
same,"6 Hz (32 mA), fraction of animals",[5]; 100 mg/kg @ 0.5 hr,2/4
same,"SMN2 promoter assay, evidence of activity (may warrant further study)",[1]; NSC34 BLA reporter cells,show evidence of activity
